Results: publication PMC6273429, “Pharmacokinetics of Tyrosol Metabolites in Rats” (Molecules, 2016)
Like-named read-outs stand apart in the source and are kept apart here. One block for each compound: values may come before it.

Legend:
[1] = Pharmacokinetics of tyrosol metabolites in rat urine after single oral dose of tyrosol (HPLC); format: in vivo, Sprague-Dawley rats; details: for Tmax / half-life: male, Sprague-Dawley; for Tmax: rat, urine, po
Experimental: Urine samples were collected at 0–1, 1–2, 2–4, 4–8, and 8–24 h after administration of tyrosol.
(§1) Male Sprague-Dawley rats with average weights of 250 g were purchased from Orient Bio Inc. (Seoul, Korea) and acclimatized to laboratory conditions comprising a 12:12 h light-dark cycle, temperature of 24 °C, and humidity of 55% for one week. Animals were fed AIN-93G diet and provided water ad libitum during acclimation. On the dosing day, the rats were gavaged with tyrosol (100 or 200 mg/kg) as a suspension in polyethylene glycol. After the oral administration of a single dose of tyrosol to rats, blood samples were collected from the eye of the rats at different time points after dosing (0.25, 0.5, 1, 2, 4, 8, and 16 h). Urine samples were collected just before administration of tyrosol and during 0–1, 1–2, 2–4, 4–8, and 8–24 h after dosing. Liver, lung, heart, spleen, kidney, and epididymal adipose tissues were excised as quickly as possible and stored frozen at −80 °C until use. Animal studies were conducted in accordance with our institutional and national guidelines, and all experimental procedures were approved by the Korea Food Research Institute Animal Care and Use Committee (KFRI-IACUC, #2015-0016).
(§2) HPLC analyses were performed on a Jasco high-performance liquid chromatography (HPLC) system (Jasco Corporation, Tokyo, Japan) equipped with a Jasco UV-2089 plus quaternary gradient pump, Jasco AS-2057 plus intelligent sample injector, Jasco UV-2075 UV/Vis detector, and Borwin chromatography software version 1.5. Separation was achieved using an XTerra RP18 column (4.6 × 250 mm, 5 µM, Waters) and a guard column. Elution was performed at a flow rate of 1.0 mL/min at 30 °C. The solvents for eluent were 1% (v/v) phosphoric acid (solvent A) and acetonitrile (solvent B). The solvent gradient changed according to the following conditions: 100% A to 95% A over 10 min, to 85% A over 10 min, to 70% A over 10 min, to 65% A over 5 min, to 90% A over 5 min, and to 100% A over 5 min, followed by 5 min of maintenance. The UV detector was set at a wavelength of 280 nm.
(§3) A non-compartmental pharmacokinetics analysis for each tyrosol metabolite was performed using PK solution software version 2.0 (Summit Research Services, Montrose, CO, USA). Cmax, Tmax, and T1/2 were estimated from the plasma concentration-time curve. The area under the curve (AUC) for the plasma concentration over time was calculated using the trapezoidal rule.

[2] = Tissue distribution of tyrosol-derived metabolites after oral administration of tyrosol; format: in vivo, Sprague-Dawley rats
Experimental: To study the tissue distribution of tyrosol metabolites, organs were collected at different time points following oral administration of tyrosol. T4S and M2 were detected in each tissue within 1 h after tyrosol administration (Figure 5A,B). […] These findings indicate that the metabolites are mainly excreted by the kidneys through the liver. Specifically, we propose that the rapid uptake of tyrosol is followed by its sulfation in the liver.
Figure 5 Tissue distribution of tyrosol-4-sulfate (A) and M2 (B). Tissue samples (heart, kidney, spleen, lung, liver, epididymal adipose tissue) were collected at different time intervals post-dosing (0, 0.5, 1, 2, 4, 8, and 16 h) and the concentration of tyrosol-4-sulfate and M2 was measured. Each point represents mean ± SD (n = 3).
as §1
Each tissue was thawed, rinsed with ice-cold saline, blotted dry, weighed, and homogenized (1:1, w/v) in water using homogenizer (MP Fastprep instrument, MP Biomedical, Solon, OH, USA). The homogenates (300 µL) were transferred into clean tubes, methanol (700 µL) was added, and the tubes were vortex-mixed for 5 min. The supernatant was collected after centrifugation at 13,000 rpm for 15 min. The supernatant was evaporated to dryness at room temperature under a stream of nitrogen gas. The residue was resuspended in methanol (100 µL).
as §2

[3] = Pharmacokinetics of tyrosol metabolites in rat plasma after single oral dose of tyrosol (HPLC); format: in vivo, Sprague-Dawley rats; details: for Cmax / Tmax / half-life / AUC(0-t): male, Sprague-Dawley; for AUC(0-t): n = 3, read-out: AUC (0-8h)
Experimental: To understand the time-dependent changes in the concentration of tyrosol metabolites, the level of metabolites in plasma samples was measured by HPLC at different time points (15, 30, 60, 120, and 240 min) after tyrosol administration. […] The inter- and intra-day precision and accuracy were determined by replicate analysis of the samples at two concentrations of each metabolite: 0.1 and 2 mg/mL tyrosol-4-sulfate. The stability of the metabolites was determined at room temperature over 24 h.
as §1
To 300 µL of serum, 700 µL of methanol was added, followed by vortex mixing for 5 min. After centrifugation at 13,000 rpm for 15 min, the supernatant was collected and injected into the HPLC or LC-MS system.
as §2, §3

[4] = system: human hepatoma HepG2 cells; set-up: method as in PMID 16366672; details: cited from earlier work

time by which eliminated in urine ([1]; after oral tyrosol): ≤ 12 h
Tmax ([1]; 100 mg/kg, tyrosol oral 100 mg/kg b.w., read-out: Tmax): 2 h
Tmax ([1]; 200 mg/kg, tyrosol oral 200 mg/kg b.w., read-out: Tmax): 2.9 h
Tmax ([1]; 200 mg/kg, tyrosol oral 100 and 200 mg/kg, read-out: Tmax in urine (range over doses)): 2 to 2.9 h
half-life ([1]; tyrosol oral 100 mg/kg b.w.): 1.2 h
half-life ([1]; tyrosol oral 200 mg/kg b.w.): 1.2 h
time to detection in each tissue ([2]; rat tissues after oral tyrosol): ≤ 1 h
detection in epididymal fat and the lungs ([2]; rat, after oral tyrosol): not detected
time of elimination from organs and tissues ([2]; rat, after oral tyrosol): ≤ 4 h
tissues of greatest deposition / highest concentration by tissue weight ([2]; rat, after oral tyrosol): liver, followed by the kidney and spleen
tissues of greatest deposition / highest concentration by tissue weight ([2]; rat, after oral tyrosol, listed as tyrosol-4-sulfate): liver and the kidney
time of uptake after oral administration of tyrosol [3]: ≤ 1 h
Cmax ([3]; tyrosol oral 100 mg/kg b.w.): 7900 ng/mL
Tmax ([3]; tyrosol oral 100 mg/kg b.w.): 0.178 h
half-life ([3]; tyrosol oral 100 mg/kg b.w.): 0.23 h
AUC(0-t) ([3]; tyrosol oral 100 mg/kg b.w.): 2500 ng·h/mL
Cmax ([3]; tyrosol oral 200 mg/kg b.w.): 12100 ng/mL
Tmax ([3]; tyrosol oral 200 mg/kg b.w.): 0.177 h
half-life ([3]; tyrosol oral 200 mg/kg b.w.): 0.202 h
AUC(0-t) ([3]; tyrosol oral 200 mg/kg b.w.): 6600 ng·h/mL
SMILES: O=S(=O)(O)Oc1ccc(CCO)cc1 [T4S, tyrosol-4-sulfate]

SMILES: OCCc1ccc(O)cc1 [Tyrosol]
detection of sulfated metabolites [4]: no detection
metabolism to glucuronide conjugates [4]: poorly metabolized
